Our source for the inhibition, Activity and IC50 values is ChEMBL document CHEMBL3822377, “Locking PDK1 in DFG-out conformation through 2-oxo-indole containing molecules: Another tools to fight glioblastoma” (Eur J Med Chem, 2016).

The source made the active and inactive calls. The rule behind the calls is not given here.

Test [1] addresses Rho-associated protein kinase 1 (Homo sapiens) (UniProt Q13464). Kind of test: Inhibition of catalytic GST-tagged human ROCK1 expressed in baculovirus system at 100 nM by Z-lyte assay.
For test [2], the target named is Mitogen-activated protein kinase 8 (Homo sapiens) (UniProt P45983). The experiment in a line: Inhibition of His-tagged full-length human MAPK8 expressed in baculovirus system at 100 nM by Z-lyte assay.
Chain of Mitogen-activated protein kinase 8 (Homo sapiens) (P45983 whole entry): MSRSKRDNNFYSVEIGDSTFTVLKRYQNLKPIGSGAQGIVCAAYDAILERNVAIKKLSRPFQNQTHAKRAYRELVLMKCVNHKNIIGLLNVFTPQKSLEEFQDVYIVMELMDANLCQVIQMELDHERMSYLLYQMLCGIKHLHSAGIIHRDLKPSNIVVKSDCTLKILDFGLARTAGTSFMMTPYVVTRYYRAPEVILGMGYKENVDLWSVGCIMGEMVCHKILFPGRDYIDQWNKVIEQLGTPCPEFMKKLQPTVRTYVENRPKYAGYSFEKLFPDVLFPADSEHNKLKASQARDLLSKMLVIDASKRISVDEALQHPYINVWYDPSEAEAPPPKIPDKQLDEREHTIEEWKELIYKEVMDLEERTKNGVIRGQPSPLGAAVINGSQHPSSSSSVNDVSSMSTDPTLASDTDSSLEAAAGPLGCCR
Test [3] concerns the target Protein kinase C epsilon type (Homo sapiens) (UniProt Q02156). The experiment in a line: Inhibition of full-length recombinant human PRKCE expressed in baculovirus system at 100 nM by Z-lyte assay.
Test [4] deals with Interleukin-1 receptor-associated kinase 4 (Homo sapiens) (UniProt Q9NWZ3). Kind of test: Inhibition of His-tagged full-length human IRAK4 expressed in baculovirus system at 100 nM by Z-lyte assay.
In test [5] the target is Cyclin-dependent kinase 1/cyclin B1 (Homo sapiens) (UniProt P06493+P14635). Kind of test: Inhibition of His-tagged full-length human CDK1/Cyclin B expressed in baculovirus system at 100 nM by Z-lyte assay.
Chain of Cyclin-dependent kinase 1/cyclin B1 (Homo sapiens) (P06493 whole entry, looked up): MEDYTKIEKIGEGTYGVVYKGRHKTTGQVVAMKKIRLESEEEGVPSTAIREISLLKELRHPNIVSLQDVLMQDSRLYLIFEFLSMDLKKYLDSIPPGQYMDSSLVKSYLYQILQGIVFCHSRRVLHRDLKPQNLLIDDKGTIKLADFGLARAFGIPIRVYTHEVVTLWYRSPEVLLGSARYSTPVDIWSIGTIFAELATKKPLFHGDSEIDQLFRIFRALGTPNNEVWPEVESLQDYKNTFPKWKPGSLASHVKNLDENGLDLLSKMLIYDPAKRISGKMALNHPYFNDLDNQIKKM
Chain of Cyclin-dependent kinase 1/cyclin B1 (Homo sapiens) (P14635 whole entry, looked up): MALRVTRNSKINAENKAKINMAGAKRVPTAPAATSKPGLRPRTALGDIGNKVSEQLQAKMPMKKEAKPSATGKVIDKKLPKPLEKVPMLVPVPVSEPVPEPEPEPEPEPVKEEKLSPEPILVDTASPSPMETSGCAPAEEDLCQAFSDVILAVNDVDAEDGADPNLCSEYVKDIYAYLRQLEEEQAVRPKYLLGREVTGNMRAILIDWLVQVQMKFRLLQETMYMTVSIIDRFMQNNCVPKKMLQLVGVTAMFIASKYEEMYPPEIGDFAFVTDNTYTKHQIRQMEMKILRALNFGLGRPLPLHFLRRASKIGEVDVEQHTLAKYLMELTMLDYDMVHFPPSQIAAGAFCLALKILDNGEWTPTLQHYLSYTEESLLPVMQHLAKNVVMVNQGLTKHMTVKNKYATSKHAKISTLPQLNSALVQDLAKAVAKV
A short description of test [6]: Induction of apoptosis in human GSC cells assessed as dead cells by measuring phosphatidylserine externalisation at 10 uM after 7 days in presence of 7-amino-actinomysin by AnnexinV/FITC staining-based flow cytometry (reference value: 1.68%). The class given is functional.
The target in test [7] is Serine/threonine-protein kinase Chk2 (Homo sapiens) (UniProt O96017). The experiment in a line: Inhibition of His-tagged full-length human CHEK2 expressed in baculovirus system at 100 nM by Z-lyte assay.
Test [8] addresses Tyrosine-protein kinase ITK/TSK (Homo sapiens) (UniProt Q08881). Kind of test: Inhibition of cytosolic GST-tagged full-length recombinant human ITK expressed in baculovirus system at 100 nM by Z-lyte assay.
The subject of test [9] is U-87 MG. The experiment in a line: Induction of apoptosis in human U87MG cells assessed as early apoptotic cells by measuring phosphatidylserine externalisation at 10 uM after 72 hrs by AnnexinV/FITC staining-based flow cytometry (reference value: 6.39%). The class given is functional, U-87MG ATCC. On the technique in general: In flow cytometry, cells or beads pass a laser one at a time.

Test [10] has as its target Protein kinase C zeta type (Homo sapiens) (UniProt Q05513). The experiment in a line: Inhibition of full-length recombinant human PRKCZ expressed in baculovirus system at 100 nM by Z-lyte assay.
In test [11] the target is MAP kinase-activated protein kinase 2 (Homo sapiens) (UniProt P49137). The experiment in a line: Inhibition of His-tagged full-length recombinant human MAPKAPK2 expressed in Escherichia coli at 100 nM by Z-lyte assay.
Chain of MAP kinase-activated protein kinase 2 (Homo sapiens) (P49137 whole entry, looked up): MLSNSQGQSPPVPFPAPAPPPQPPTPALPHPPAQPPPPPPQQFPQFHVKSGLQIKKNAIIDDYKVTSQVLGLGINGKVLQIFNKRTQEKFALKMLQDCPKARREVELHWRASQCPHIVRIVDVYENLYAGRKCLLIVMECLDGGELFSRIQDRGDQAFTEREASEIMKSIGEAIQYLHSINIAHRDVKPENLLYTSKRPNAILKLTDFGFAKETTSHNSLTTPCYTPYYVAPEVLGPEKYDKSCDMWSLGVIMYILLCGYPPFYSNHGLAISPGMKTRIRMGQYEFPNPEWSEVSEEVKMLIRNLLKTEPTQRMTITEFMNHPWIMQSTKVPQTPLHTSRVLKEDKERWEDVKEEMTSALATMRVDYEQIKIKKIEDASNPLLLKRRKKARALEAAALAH
In test [12] the target is T1, 3-phosphoinositide-dependent protein kinase 1 (Homo sapiens) (UniProt O15530).
T1 sequence (whole entry): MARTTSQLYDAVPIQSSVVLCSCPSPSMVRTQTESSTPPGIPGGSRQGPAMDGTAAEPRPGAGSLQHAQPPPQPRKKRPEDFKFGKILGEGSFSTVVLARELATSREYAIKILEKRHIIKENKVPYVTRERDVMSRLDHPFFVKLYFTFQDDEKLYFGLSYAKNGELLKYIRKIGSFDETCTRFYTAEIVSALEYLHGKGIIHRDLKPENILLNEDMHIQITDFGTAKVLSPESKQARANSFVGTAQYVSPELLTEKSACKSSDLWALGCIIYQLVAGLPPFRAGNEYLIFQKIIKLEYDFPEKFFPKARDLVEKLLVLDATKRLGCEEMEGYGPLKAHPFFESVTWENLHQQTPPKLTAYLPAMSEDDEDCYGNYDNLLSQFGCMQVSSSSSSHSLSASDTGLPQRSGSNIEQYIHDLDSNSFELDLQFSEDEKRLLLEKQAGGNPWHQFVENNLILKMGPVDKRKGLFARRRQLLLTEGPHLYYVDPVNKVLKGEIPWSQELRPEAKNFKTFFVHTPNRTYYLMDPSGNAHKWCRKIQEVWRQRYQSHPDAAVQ
The experiment in a line: Inhibition of PDK1 (unknown origin) at 10 uM by FRET-based Z-lyte assay.

Test [13] relates to U-87MG ATCC. The experiment in a line: (§1) Antiproliferative activity against human U87MG cells after 72 hrs by MTS assay. The class given is functional, cell-based. For orientation: Formazan colour is commonly taken as a measure of viable cells.
Test [14] in a line: as §1. The class given is functional, cell-based, U-87MG ATCC. The conditions noted are these: U-87 MG.
For test [15], the target named is CDK2/Cyclin A2 (Homo sapiens) (UniProt P24941+P20248). Kind of test: Inhibition of GST-tagged human CDK2/Cyclin A expressed in baculovirus system at 100 nM by Z-lyte assay.
Test [16] concerns the target Casein kinase II subunit alpha' (Homo sapiens) (UniProt P19784). The experiment in a line: Inhibition of GST-tagged full-length human recombinant CSNK2A2 expressed in baculovirus system at 100 nM by Z-lyte assay.
The target of test [17] is T1, 3-phosphoinositide-dependent protein kinase 1 (Homo sapiens). The experiment in a line: Inhibition of PDK1 in human U87MG cells assessed as reduction in AKT phosphorylation at Thr308 residue at 10 uM measured at 120 mins by ELISA relative to control. The class given is cell-based. To be noted: U-87MG ATCC. Background: ELISA stands for enzyme-linked immunosorbent assay.

Test [18] has as its target Tyrosine-protein kinase ABL1 (Homo sapiens) (UniProt P00519). Kind of test: Inhibition of His-tagged full-length human ABL1 expressed in baculovirus system at 100 nM by Z-lyte assay.
Test [19] concerns the target T1, 3-phosphoinositide-dependent protein kinase 1 (Homo sapiens). Kind of test: Inhibition of PDK1-mediated cell migration in human U87MG cells at 10 uM […] measured at 6 to 24 hrs by scratch wound assay. Type of test: cell-based. The conditions noted are these: U-87MG ATCC.
Test [20] concerns the target Aurora kinase A (Homo sapiens) (UniProt O14965). The experiment in a line: Inhibition of His-tagged full-length recombinant human Aurora A expressed in baculovirus system at 100 nM by Z-lyte assay.
The target in test [21] is T1, 3-phosphoinositide-dependent protein kinase 1 (Homo sapiens). Kind of test: Inhibition of PDK1 in human GSC cells assessed as reduction in AKT phosphorylation at Thr308 residue at 10 uM measured at 120 mins by ELISA relative to control. The class given is cell-based.
Test [22] concerns U-87MG ATCC. The experiment in a line: Inhibition of AKT phosphorylation at Thr308 residue in human U87MG cells at 10 uM by ELISA relative to control. The class given is cell-based.

Chain of Casein kinase II subunit alpha' (Homo sapiens) (P19784 whole entry, looked up): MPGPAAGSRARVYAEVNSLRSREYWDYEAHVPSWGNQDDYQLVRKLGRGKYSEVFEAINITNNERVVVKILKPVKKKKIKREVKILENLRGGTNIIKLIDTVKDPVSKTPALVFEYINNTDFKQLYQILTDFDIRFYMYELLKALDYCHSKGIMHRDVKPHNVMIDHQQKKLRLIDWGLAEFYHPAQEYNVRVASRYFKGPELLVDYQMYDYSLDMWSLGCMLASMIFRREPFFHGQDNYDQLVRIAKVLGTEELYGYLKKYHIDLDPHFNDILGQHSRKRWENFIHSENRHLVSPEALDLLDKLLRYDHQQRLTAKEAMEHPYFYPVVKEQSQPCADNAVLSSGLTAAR
Chain of Protein kinase C zeta type (Homo sapiens) (Q05513 whole entry): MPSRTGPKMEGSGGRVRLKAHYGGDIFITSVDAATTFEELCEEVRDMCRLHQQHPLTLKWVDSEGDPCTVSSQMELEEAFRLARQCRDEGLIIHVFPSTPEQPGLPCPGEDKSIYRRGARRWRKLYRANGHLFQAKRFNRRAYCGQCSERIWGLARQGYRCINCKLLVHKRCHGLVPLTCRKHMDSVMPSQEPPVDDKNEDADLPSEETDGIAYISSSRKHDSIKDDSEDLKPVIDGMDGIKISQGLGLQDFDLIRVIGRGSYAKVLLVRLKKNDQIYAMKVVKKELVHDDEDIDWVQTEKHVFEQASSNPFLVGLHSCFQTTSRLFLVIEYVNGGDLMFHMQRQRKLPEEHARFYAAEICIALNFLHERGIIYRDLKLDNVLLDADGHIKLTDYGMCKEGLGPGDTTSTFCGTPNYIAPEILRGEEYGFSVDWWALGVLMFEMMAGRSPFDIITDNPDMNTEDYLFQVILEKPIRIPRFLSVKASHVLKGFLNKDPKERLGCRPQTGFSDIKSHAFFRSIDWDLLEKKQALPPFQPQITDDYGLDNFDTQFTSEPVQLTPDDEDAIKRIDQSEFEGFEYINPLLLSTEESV
Chain of Protein kinase C epsilon type (Homo sapiens) (Q02156 whole entry): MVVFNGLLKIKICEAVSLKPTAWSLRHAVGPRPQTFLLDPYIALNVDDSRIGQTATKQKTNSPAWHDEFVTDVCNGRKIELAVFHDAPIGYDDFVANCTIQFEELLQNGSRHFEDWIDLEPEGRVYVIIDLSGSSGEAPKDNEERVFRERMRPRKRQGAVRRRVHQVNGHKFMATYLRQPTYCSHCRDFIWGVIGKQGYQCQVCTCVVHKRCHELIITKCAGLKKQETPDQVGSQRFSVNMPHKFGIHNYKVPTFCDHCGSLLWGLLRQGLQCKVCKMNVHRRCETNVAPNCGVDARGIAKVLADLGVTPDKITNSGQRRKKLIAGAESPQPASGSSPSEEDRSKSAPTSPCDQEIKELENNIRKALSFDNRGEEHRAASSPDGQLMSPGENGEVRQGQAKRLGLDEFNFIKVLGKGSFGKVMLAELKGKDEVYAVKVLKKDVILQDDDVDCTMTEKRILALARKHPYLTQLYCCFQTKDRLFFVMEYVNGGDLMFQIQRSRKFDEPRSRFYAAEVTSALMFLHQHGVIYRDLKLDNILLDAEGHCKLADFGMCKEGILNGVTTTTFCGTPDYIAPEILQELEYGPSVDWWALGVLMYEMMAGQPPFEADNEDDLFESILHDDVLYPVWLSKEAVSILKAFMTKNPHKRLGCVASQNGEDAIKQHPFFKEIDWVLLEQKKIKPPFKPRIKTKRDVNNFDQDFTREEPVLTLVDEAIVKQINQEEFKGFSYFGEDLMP
Chain of Tyrosine-protein kinase ABL1 (Homo sapiens) (P00519 whole entry): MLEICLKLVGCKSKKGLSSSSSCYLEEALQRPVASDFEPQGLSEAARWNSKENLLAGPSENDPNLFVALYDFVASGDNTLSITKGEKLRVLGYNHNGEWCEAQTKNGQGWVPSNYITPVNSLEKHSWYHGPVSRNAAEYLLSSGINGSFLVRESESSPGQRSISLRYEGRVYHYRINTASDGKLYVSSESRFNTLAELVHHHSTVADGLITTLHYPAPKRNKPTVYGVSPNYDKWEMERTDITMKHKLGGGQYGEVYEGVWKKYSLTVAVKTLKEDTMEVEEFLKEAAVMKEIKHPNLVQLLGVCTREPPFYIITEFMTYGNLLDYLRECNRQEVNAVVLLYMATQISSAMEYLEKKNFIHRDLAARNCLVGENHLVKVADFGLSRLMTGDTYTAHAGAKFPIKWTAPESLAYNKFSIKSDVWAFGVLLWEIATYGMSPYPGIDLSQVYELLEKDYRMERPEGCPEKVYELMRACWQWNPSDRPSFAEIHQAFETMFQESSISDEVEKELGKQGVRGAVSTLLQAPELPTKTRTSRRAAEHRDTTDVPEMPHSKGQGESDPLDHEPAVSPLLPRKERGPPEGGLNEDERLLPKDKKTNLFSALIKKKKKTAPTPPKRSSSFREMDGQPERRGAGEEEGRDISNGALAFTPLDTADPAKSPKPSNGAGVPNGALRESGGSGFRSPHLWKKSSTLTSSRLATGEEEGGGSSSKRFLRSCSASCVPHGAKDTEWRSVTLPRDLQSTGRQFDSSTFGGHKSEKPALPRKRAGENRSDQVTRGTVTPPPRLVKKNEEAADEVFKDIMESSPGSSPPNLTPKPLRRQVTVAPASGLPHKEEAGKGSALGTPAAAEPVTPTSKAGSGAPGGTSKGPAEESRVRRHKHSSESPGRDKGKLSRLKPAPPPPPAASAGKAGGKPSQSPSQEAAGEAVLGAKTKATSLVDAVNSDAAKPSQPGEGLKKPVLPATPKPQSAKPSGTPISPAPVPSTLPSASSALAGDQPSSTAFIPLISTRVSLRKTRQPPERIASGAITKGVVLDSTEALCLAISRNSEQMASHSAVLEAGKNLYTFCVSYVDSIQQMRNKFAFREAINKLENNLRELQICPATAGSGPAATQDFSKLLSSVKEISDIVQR
Chain of Aurora kinase A (Homo sapiens) (O14965 whole entry): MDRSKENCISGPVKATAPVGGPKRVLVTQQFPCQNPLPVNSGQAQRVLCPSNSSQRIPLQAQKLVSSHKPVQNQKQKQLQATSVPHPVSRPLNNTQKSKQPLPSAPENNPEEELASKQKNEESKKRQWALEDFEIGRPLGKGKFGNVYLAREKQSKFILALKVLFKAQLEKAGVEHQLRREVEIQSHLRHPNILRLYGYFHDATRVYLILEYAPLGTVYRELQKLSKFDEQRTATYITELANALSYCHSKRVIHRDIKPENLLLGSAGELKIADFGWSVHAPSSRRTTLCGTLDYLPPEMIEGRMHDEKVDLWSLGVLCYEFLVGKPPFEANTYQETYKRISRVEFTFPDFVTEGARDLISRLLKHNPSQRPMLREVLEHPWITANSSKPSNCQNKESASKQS

For `O=C(CNC(=O)c1cccn(Cc2ccc(F)c(F)c2)c1=O)Nc1ccc2c(c1)/C(=C/c1cnc[nH]1)C(=O)N2`, the inhibition – broadly, the change of the read-out against control, counted positive when it falls – was -7% in test [1]; 12% in test [2]; 3% in test [3]; -6% in test [4]; 6% in test [5]; 4% in test [7]. The inhibition is 14% in test [8]; -3% in [10]; 0% in [11]; 87% in [12]; “Dose-dependent effect” in test [13]; 4% in [15]. The inhibition in [16] was 3%; in test [17], 19.6%; in test [18], 14%; in test [20], 38%; in test [21], 80.4%; in [22], “Dose-dependent effect”. In addition, the Activity is on record as 2.35% in test [6] and 17.3% in test [9]. Also, the IC50 – broadly, the midpoint of a concentration-inhibition curve – in test [14] was found to be 0.45 µM. For the same compound, in test [19], the inhibition result was “Active”.
